What was measured:
PAK1 = PAK1 (Homo sapiens, UniProt Q13153); assay: Z'Lyte fluorescence-based (FRET) kinase assay, PAK1; format: biochemical; details: 50 μM ATP (Km apparent), 1 hr room temperature, 1% DMSO
Experimental: (§1) A fluorescence-based assay format is used to determine IC50 values of test compounds in vitro. Purified PAK kinase is incubated with ATP, and a test compound at various concentrations and a substrate peptide containing two fluorophores. In a second step, the reaction mix is incubated with a site-specific protease that cleaves non-phosphorylated but not phosphorylated substrate peptide, disrupting the FRET signal generated by the two fluorophores in the cleaved peptide (Z′Lyte™ Kinase assay platform; Life Technologies).
(§2) Reagents: 50 mM HEPES, pH 7.5; 0.01% BRIJ-35; 10 mM MgCl2; 1 mM EGTA, 2 uM substrate peptide Ser/Thr20 (proprietary Life Technologies Sequence), PAK enzyme [2.42-30.8 ng for PAK1, 0.29-6 ng for PAK2, 1.5-20 ng for PAK3 and 0.1-0.86 ng for PAK4; actual enzyme amounts depend on lot activity of the enzyme preparation]
(§3) Test compounds are dissolved in DMSO at various concentrations; the final DMSO concentration in the assay reaction is 1%.
(§4) ATP concentration at Km apparent is used in the assay [50 μM ATP for PAK1 assay, 75 μM ATP for PAK2 assay, 100 μM ATP for PAK3 assay, 5 μM ATP for PAK-4 assay] in a total assay volume of […] Assay reactions are incubated at room temperature for 1 hr. Following the kinase reaction, 5 μl of 1:256 dilution of development solution A (Life Technologies) is added and the reaction mix is incubated for an additional 1 hr at room temperature.
(§5) Plates are analyzed in a standard fluorescence plate reader (Tecan or equivalent) using an excitation wavelength of 400 nm and emission wavelengths of 445 nm and 520 nm. Inhibition of kinase reaction is determined by emission ratio=emission@445 nm/emission@520 nm

PAK2 = PAK2 (Homo sapiens, UniProt Q13177); assay: Z'Lyte fluorescence-based (FRET) kinase assay, PAK2; format: biochemical; details: 75 μM ATP (Km apparent), 1 hr room temperature, 1% DMSO
Experimental: as §1, §2, §3, §4, §5

PAK3 = PAK3 (Homo sapiens, UniProt O75914); assay: Z'Lyte fluorescence-based (FRET) kinase assay, PAK3; format: biochemical; details: 100 μM ATP (Km apparent), 1 hr room temperature, 1% DMSO
Experimental: as §1, §2, §3, §4, §5

PAK4 = PAK4 (Homo sapiens, UniProt O96013); assay: Z'Lyte fluorescence-based (FRET) kinase assay, PAK4; format: biochemical; details: 5 μM ATP (Km apparent), 1 hr room temperature, 1% DMSO
Experimental: as §1, §2, §3, §4, §5

PAK1, PAK2, PAK3, PAK-4 = assay: PAK isoform inhibition profile of example compounds; format: biochemical; details: classification of example compounds in the description; underlying IC50 data in Table 8
From the text: In some embodiments, the PAK inhibitor is a Group I PAK inhibitor that inhibits, for example, one or more Group I PAK polypeptides, for example, PAK1, PAK2, and/or PAK3. […] In some embodiments, the PAK inhibitor is a PAK2 inhibitor. In some embodiments, the PAK inhibitor is a PAK3 inhibitor. In some embodiments, the PAK inhibitor is a mixed PAK1/PAK3 inhibitor. […] In some embodiments, the PAK inhibitor is a Group II PAK inhibitor that inhibits one or more Group II PAK polypeptides, for example PAK-4, PAK5, and/or PAK6. In some embodiments, the PAK inhibitor is a PAK4 inhibitor. In some embodiments, the PAK inhibitor is a PAK5 inhibitor. In some embodiments, the PAK inhibitor is a PAK6 inhibitor.
as §1, §2, §3, §4, §5

[1] = tested on: Wistar rat pups injected with tetanus toxin; details: in vivo

Sequence of PAK2 (Q13177 whole entry): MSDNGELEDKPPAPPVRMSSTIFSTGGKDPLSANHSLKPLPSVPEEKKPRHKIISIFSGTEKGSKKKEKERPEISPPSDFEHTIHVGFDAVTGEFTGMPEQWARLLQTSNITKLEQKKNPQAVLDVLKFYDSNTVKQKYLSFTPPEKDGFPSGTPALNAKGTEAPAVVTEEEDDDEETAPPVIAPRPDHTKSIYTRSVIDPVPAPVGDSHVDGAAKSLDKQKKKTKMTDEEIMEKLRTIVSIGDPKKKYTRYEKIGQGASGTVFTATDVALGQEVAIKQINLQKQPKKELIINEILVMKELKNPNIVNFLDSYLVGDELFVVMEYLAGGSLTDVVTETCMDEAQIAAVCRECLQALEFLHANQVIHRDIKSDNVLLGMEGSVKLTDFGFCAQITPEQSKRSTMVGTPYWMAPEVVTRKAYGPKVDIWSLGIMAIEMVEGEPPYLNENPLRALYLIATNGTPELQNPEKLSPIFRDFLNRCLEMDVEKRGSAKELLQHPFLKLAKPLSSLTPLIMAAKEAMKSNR
Sequence of PAK3 (O75914 whole entry): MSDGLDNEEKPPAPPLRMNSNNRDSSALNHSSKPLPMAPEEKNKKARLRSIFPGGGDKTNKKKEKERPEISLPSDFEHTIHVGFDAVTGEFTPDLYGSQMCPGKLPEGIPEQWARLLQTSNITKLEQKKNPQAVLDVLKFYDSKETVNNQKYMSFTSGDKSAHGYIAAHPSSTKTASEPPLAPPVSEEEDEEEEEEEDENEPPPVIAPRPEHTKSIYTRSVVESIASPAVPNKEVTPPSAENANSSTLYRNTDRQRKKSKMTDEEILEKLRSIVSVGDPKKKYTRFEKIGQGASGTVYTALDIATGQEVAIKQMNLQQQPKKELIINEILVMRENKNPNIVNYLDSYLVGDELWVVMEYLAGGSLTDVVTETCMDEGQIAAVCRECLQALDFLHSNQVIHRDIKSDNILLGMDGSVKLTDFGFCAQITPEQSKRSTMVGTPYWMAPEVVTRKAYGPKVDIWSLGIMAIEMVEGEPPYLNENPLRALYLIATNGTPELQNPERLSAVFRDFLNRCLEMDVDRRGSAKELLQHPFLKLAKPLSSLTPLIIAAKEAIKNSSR
Sequence of PAK1 (Q13153 whole entry): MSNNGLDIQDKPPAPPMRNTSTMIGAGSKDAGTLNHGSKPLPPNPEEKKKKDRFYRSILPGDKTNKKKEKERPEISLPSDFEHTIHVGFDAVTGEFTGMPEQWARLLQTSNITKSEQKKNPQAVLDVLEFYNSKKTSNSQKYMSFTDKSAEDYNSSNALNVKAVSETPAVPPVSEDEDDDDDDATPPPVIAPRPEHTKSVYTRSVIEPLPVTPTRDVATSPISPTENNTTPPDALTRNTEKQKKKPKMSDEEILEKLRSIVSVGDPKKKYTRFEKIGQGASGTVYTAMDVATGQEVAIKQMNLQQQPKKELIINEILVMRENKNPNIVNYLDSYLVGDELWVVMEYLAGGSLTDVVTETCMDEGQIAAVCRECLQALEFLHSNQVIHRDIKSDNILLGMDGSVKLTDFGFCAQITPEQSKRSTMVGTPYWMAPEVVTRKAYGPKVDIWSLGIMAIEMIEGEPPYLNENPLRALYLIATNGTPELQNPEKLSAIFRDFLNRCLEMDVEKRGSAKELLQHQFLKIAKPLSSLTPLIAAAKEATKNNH
Sequence of PAK4 (O96013 whole entry): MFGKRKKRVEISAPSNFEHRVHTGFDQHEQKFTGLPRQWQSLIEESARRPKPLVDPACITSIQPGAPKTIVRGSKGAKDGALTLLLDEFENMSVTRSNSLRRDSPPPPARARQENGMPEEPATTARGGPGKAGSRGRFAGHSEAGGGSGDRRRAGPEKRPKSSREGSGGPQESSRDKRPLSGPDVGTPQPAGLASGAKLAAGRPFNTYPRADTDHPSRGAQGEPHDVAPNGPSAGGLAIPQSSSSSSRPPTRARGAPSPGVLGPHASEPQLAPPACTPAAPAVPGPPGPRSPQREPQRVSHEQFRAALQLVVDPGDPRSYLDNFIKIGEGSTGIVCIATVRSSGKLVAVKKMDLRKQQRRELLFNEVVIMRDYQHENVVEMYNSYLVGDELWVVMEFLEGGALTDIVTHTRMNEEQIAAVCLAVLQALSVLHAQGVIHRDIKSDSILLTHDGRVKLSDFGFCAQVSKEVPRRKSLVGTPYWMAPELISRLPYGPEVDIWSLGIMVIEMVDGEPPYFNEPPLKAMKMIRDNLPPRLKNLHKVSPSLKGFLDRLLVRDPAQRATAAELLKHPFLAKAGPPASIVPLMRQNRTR

Compound | IC50 (PAK1) | IC50 (PAK2) | IC50 (PAK3) | IC50 (PAK4) | PAK inhibitor type (isoform profile) (PAK1, PAK2, PAK3, PAK-4) | Effect on seizures [1]
CN1CCN(c2ccc(Nc3ncc4ccc(=O)n(Cc5ccccc5C5CC5)c4n3)cc2)CC1 [Compound 81, 8-(2-cyclopropylbenzyl)-2-(4-(4-methylpiperazin-1-yl)phenylamino)pyrido[2,3-d]pyrimidin-7(8H)-one] | < 1000 nM | < 1000 nM | < 1000 nM | < 1000 nM | mixed PAK1/PAK2/PAK3/PAK-4 inhibitor | –
CN1CCN(c2ccc(Nc3ncc4ccc(=O)n(Cc5ccccc5-c5ccccc5)c4n3)cc2)CC1 [Compound 68] | < 1000 nM | < 1000 nM | < 1000 nM | 1000 to 10000 nM | inhibits all three Group I PAK isoforms (PAK1, 2 and PAK3) with equal or similar potency | –
CN1CCN(c2ccc(Nc3ncc4ccc(=O)n([C@H]5CCCc6ccccc65)c4n3)cc2)CC1 [Compound 12] | < 1000 nM | 1000 to 10000 nM | 1000 to 10000 nM | 1000 to 10000 nM | PAK1 inhibitor | reduce the frequency and severity of seizures
Cc1noc(-c2ccccc2Cn2c(=O)ccc3cnc(Nc4ccc(N5CCNCC5)c(F)c4)nc32)n1 [Compound 80] | < 1000 nM | 1000 to 10000 nM | 1000 to 10000 nM | 1000 to 10000 nM | PAK1 inhibitor | –
NCCNc1ccc(-c2ccnc(Nc3ccc(N4CCNCC4)cc3)n2)cn1 [Compound 111] | < 1000 nM | 1000 to 10000 nM | 1000 to 10000 nM | < 1000 nM | mixed PAK1/PAK-4 inhibitor | –
CN1CCN(c2ccc(Nc3ncc4ccc(=O)n(Cc5ccccc5N5CCOCC5)c4n3)cc2)CC1 [Compound 73] | < 1000 nM | < 1000 nM | < 1000 nM | < 1000 nM | mixed PAK1/PAK2/PAK3/PAK-4 inhibitor | –
CN1CCN(c2ccc(Nc3ncc4ccc(=O)n(Cc5ccccc5S(=O)(=O)N5CCOCC5)c4n3)cc2)CC1 [Compound 74] | < 1000 nM | < 1000 nM | < 1000 nM | < 1000 nM | mixed PAK1/PAK2/PAK3/PAK-4 inhibitor | –
Cc1ccc(F)cc1Cn1c(=O)ccc2cnc(Nc3ccc(N4CCN(C)CC4)cc3)nc21 [Compound 59] | < 1000 nM | 1000 to 10000 nM | 1000 to 10000 nM | < 1000 nM | mixed PAK1/PAK-4 inhibitor | –
CN1CCN(c2ccc(Nc3ncc4ccc(=O)n(Cc5ccccc5S(C)(=O)=O)c4n3)cc2)CC1 [Compound 72] | < 1000 nM | < 1000 nM | < 1000 nM | < 1000 nM | mixed PAK1/PAK2/PAK3/PAK-4 inhibitor | –
O=c1ccc2cnc(Nc3ccc(N4CCNCC4)c(F)c3)nc2n1Cc1ccccc1-c1cccs1 [Compound 78] | < 1000 nM | < 1000 nM | < 1000 nM | < 1000 nM | mixed PAK1/PAK2/PAK3/PAK-4 inhibitor | –
CN1CCN(c2ccc(Nc3nccc(-c4ccc(NCCN)nc4)n3)cc2F)CC1 [Compound 113] | < 1000 nM | 1000 to 10000 nM | 1000 to 10000 nM | < 1000 nM | mixed PAK1/PAK-4 inhibitor | –
CN1CCN(c2ccc(Nc3ncc4ccc(=O)n(Cc5c(Cl)cccc5Cl)c4n3)cc2)CC1 [Compound 57] | < 1000 nM | < 1000 nM | 1000 to 10000 nM | < 1000 nM | mixed PAK1/PAK2/PAK-4 inhibitor | –
CN1CCN(c2ccc(Nc3ncc4ccc(=O)n(Cc5ccccc5Br)c4n3)cc2)CC1 [Compound 27, 8-(2-bromobenzyl)-2-(4-(4-methylpiperazin-1-yl)phenylamino)pyrido[2,3-d]pyrimidin-7(8H)-one] | < 1000 nM | < 1000 nM | < 1000 nM | < 1000 nM | mixed PAK1/PAK2/PAK3/PAK-4 inhibitor | –
O=c1ccc2cnc(Nc3ccc(N4CCNCC4)c(F)c3)nc2n1Cc1ccccc1C(F)(F)F [Compound 62] | < 1000 nM | < 1000 nM | < 1000 nM | < 1000 nM | mixed PAK1/PAK2/PAK3/PAK-4 inhibitor | –
COc1cccc(F)c1Cn1c(=O)ccc2cnc(Nc3ccc(N4CCN(C)CC4)cc3)nc21 [Compound 61] | < 1000 nM | 1000 to 10000 nM | 1000 to 10000 nM | < 1000 nM | mixed PAK1/PAK-4 inhibitor | –
CN1CCN(c2ccc(Nc3ncc4ccc(=O)n(Cc5c(F)cccc5Br)c4n3)cc2)CC1 [Compound 79] | < 1000 nM | < 1000 nM | < 1000 nM | < 1000 nM | mixed PAK1/PAK2/PAK3/PAK-4 inhibitor | –
Cc1noc(-c2ccccc2Cn2c(=O)ccc3cnc(Nc4ccc(N5CCN(C)CC5)cc4)nc32)n1 [Compound 75] | < 1000 nM | 1000 to 10000 nM | 1000 to 10000 nM | 1000 to 10000 nM | PAK1 inhibitor | –
CN1CCN(c2ccc(Nc3ncc4ccc(=O)n(Cc5c(Cl)cccc5C5CC5)c4n3)cc2)CC1 [Compound 84] | < 1000 nM | < 1000 nM | < 1000 nM | 1000 to 10000 nM | inhibits all three Group I PAK isoforms (PAK1, 2 and PAK3) with equal or similar potency | –
CN1CCN(c2ccc(Nc3ncc4ccc(=O)n(Cc5c(F)cccc5F)c4n3)cc2)CC1 [Compound 58] | < 1000 nM | 1000 to 10000 nM | 1000 to 10000 nM | 1000 to 10000 nM | PAK1 inhibitor | –
CN1CCN(c2ccc(Nc3ncc4ccc(=O)n(Cc5c(Cl)cccc5Br)c4n3)cc2)CC1 [Compound 71] | < 1000 nM | < 1000 nM | < 1000 nM | < 1000 nM | mixed PAK1/PAK2/PAK3/PAK-4 inhibitor | –
CN1CCN(c2ccc(Nc3ncc4ccc(=O)n(CCc5ccccc5C(F)(F)F)c4n3)cc2)CC1 [Compound 66] | < 1000 nM | < 1000 nM | 1000 to 10000 nM | < 1000 nM | mixed PAK1/PAK2/PAK-4 inhibitor | –
CN1CCN(c2ccc(Nc3nccc(-c4ccc(NCCN)nc4)n3)cc2)CC1.Cl [Compound 94, N-(5-{2-[4-(4-Methyl-piperazin-1-yl)-phenylamino]-pyrimidin-4-yl}-pyridin-2-yl)-ethane-1,2-diamine hydrochloride] | < 1000 nM | 1000 to 10000 nM | 1000 to 10000 nM | < 1000 nM | mixed PAK1/PAK-4 inhibitor | –
